Results as given in ChEMBL document CHEMBL1909294, “Translating clinical findings into knowledge in drug safety evaluation--drug induced liver injury prediction system (DILIps)” (PLoS Comput Biol, 2011).

Key:
[1] = test system: Hepatotoxicity;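 on HepSE bilirubinemia: bilirubinemia hepatic side effect score drawn from the DILIps training data, a prediction system for drug-induced liver injury; call rule not given here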;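 on HepSE cholecystitis: Cholecystitis-related hepatic side effect score drawn from the DILIps (drug-induced liver injury prediction) training data set; call rule not given here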;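 on HepSE cholelithiasis: hepatic side effect score for cholelithiasis, drawn from the DILIps training data for predicting drug-induced liver injury; call rule not given here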;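 on HepSE cirrhosis: cirrhosis hepatic side effect score taken from the DILIps (drug-induced liver injury prediction) training set; call rule not given here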;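 on HepSE elevated liver function tests: hepatic side effect score for raised liver function tests, as recorded in the DILIps training set used for predicting drug-induced liver injury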; on HepSE hepatic failure: call rule not given here;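 on HepSE hepatomegaly: hepatic side effect score for hepatomegaly, taken from the training set of the DILIps drug-induced liver injury prediction system; call rule not given here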
[2] = test system: Hepatotoxicity; remark: listed apart in the source;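 on HepSE bilirubinemia: bilirubinemia hepatic side effect score drawn from the DILIps training data, a prediction system for drug-induced liver injury; call rule not given here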;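 on HepSE cholecystitis: Cholecystitis-related hepatic side effect score drawn from the DILIps (drug-induced liver injury prediction) training data set; call rule not given here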;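 on HepSE cholelithiasis: hepatic side effect score for cholelithiasis, drawn from the DILIps training data for predicting drug-induced liver injury; call rule not given here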;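 on HepSE cirrhosis: cirrhosis hepatic side effect score taken from the DILIps (drug-induced liver injury prediction) training set; call rule not given here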;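 on HepSE elevated liver function tests: hepatic side effect score for raised liver function tests, as recorded in the DILIps training set used for predicting drug-induced liver injury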; on HepSE hepatic failure: call rule not given here;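 on HepSE hepatomegaly: hepatic side effect score for hepatomegaly, taken from the training set of the DILIps drug-induced liver injury prediction system; call rule not given here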
[3] = test system: Hepatotoxicity; remark: listed apart in the source;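 on HepSE bilirubinemia: bilirubinemia hepatic side effect score drawn from the DILIps training data, a prediction system for drug-induced liver injury; call rule not given here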;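 on HepSE cholecystitis: Cholecystitis-related hepatic side effect score drawn from the DILIps (drug-induced liver injury prediction) training data set; call rule not given here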;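 on HepSE cholelithiasis: hepatic side effect score for cholelithiasis, drawn from the DILIps training data for predicting drug-induced liver injury; call rule not given here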;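 on HepSE cirrhosis: cirrhosis hepatic side effect score taken from the DILIps (drug-induced liver injury prediction) training set; call rule not given here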;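 on HepSE elevated liver function tests: hepatic side effect score for raised liver function tests, as recorded in the DILIps training set used for predicting drug-induced liver injury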; on HepSE hepatic failure: call rule not given here
[4] = test system: Hepatotoxicity; remark: listed apart in the source;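 on HepSE bilirubinemia: bilirubinemia hepatic side effect score drawn from the DILIps training data, a prediction system for drug-induced liver injury; call rule not given here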;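 on HepSE cholecystitis: Cholecystitis-related hepatic side effect score drawn from the DILIps (drug-induced liver injury prediction) training data set; call rule not given here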;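 on HepSE cholelithiasis: hepatic side effect score for cholelithiasis, drawn from the DILIps training data for predicting drug-induced liver injury; call rule not given here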;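 on HepSE cirrhosis: cirrhosis hepatic side effect score taken from the DILIps (drug-induced liver injury prediction) training set; call rule not given here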;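 on HepSE elevated liver function tests: hepatic side effect score for raised liver function tests, as recorded in the DILIps training set used for predicting drug-induced liver injury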; on HepSE hepatic failure: call rule not given here
[5] = test system: Hepatotoxicity; remark: listed apart in the source; on HepSE hepatic failure: call rule not given here
[6] = test system: Hepatotoxicity; remark: listed apart in the source; on HepSE hepatic failure: call rule not given here
[7] = test system: Hepatotoxicity; remark: listed apart in the source
[8] = test system: Hepatotoxicity; remark: listed apart in the source
[9] = test system: Hepatotoxicity; remark: listed apart in the source
[10] = test system: Hepatotoxicity; remark: listed apart in the source
[11] = test system: Hepatotoxicity; remark: listed apart in the source
[12] = test system: Hepatotoxicity; remark: listed apart in the source
[13] = test system: Hepatotoxicity; remark: listed apart in the source
[14] = test system: Hepatotoxicity; remark: listed apart in the source

CO[C@H]1/C=C/O[C@@]2(C)Oc3c(C)c(O)c4c(O)c(c(/C=N/N5CCN(C6CCCC6)CC5)c(O)c4c3C2=O)NC(=O)/C(C)=C\C=C\[C@H](C)[C@H](O)[C@@H](C)[C@@H](O)[C@@H](C)[C@H](OC(C)=O)[C@@H]1C [RIFAPENTINE]
HepSE_bilirubinemia [1]: 1
HepSE_cholecystitis [2]: 0
HepSE_cholelithiasis [3]: 0
HepSE_cirrhosis [4]: 0
HepSE_elevated liver function tests [5]: 0
HepSE_hepatic failure [6]: 0
HepSE_hepatic necrosis [7]: 0
HepSE_hepatitis [8]: 1
HepSE_hepatomegaly [9]: 0
HepSE_jaundice [10]: 0
HepSE_liver disease [11]: 0
HepSE_liver fatty [12]: 0
HepSE_liver function tests abnormal [13]: 0
HepSE_Combined Scores [14]: 2

CO[C@H]1/C=C/O[C@@]2(C)Oc3c(C)c(O)c4c(O)c(c5c(nc6cc(C)ccn65)c4c3C2=O)NC(=O)/C(C)=C\C=C\[C@H](C)[C@H](O)[C@@H](C)[C@@H](O)[C@@H](C)[C@H](OC(C)=O)[C@@H]1C [RIFAXIMIN]
HepSE_bilirubinemia [1]: 0
HepSE_cholecystitis [2]: 0
HepSE_cholelithiasis [3]: 0
HepSE_cirrhosis [4]: 0
HepSE_elevated liver function tests [5]: 0
HepSE_hepatic failure [6]: 0
HepSE_hepatic necrosis [7]: 0
HepSE_hepatitis [8]: 0
HepSE_hepatomegaly [9]: 0
HepSE_jaundice [10]: 0
HepSE_liver disease [11]: 0
HepSE_liver fatty [12]: 0
HepSE_liver function tests abnormal [13]: 0
HepSE_Combined Scores [14]: 0

Nc1nc2ccc(OC(F)(F)F)cc2s1 [RILUZOLE]
HepSE_bilirubinemia [1]: 0
HepSE_cholecystitis [2]: 1
HepSE_cholelithiasis [3]: 0
HepSE_cirrhosis [4]: 0
HepSE_elevated liver function tests [5]: 0
HepSE_hepatic failure [6]: 0
HepSE_hepatic necrosis [7]: 0
HepSE_hepatitis [8]: 1
HepSE_hepatomegaly [9]: 0
HepSE_jaundice [10]: 1
HepSE_liver disease [11]: 0
HepSE_liver fatty [12]: 0
HepSE_liver function tests abnormal [13]: 0
HepSE_Combined Scores [14]: 3

CC(N)C12CC3CC(CC(C3)C1)C2 (stereo not drawn) [RIMANTADINE]
HepSE_bilirubinemia [1]: 0
HepSE_cholecystitis [2]: 0
HepSE_cholelithiasis [3]: 0
HepSE_cirrhosis [4]: 0
HepSE_elevated liver function tests [5]: 0
HepSE_hepatic failure [6]: 0
HepSE_hepatic necrosis [7]: 0
HepSE_hepatitis [8]: 0
HepSE_hepatomegaly [9]: 0
HepSE_jaundice [10]: 0
HepSE_liver disease [11]: 0
HepSE_liver fatty [12]: 0
HepSE_liver function tests abnormal [13]: 0
HepSE_Combined Scores [14]: 0

CCC(=O)[C@@]1(C)[C@H](C)C[C@H]2[C@@H]3CCC4=CC(=O)C=C[C@]4(C)[C@H]3[C@@H](O)C[C@@]21C [RIMEXOLONE]
HepSE_bilirubinemia [1]: 0
HepSE_cholecystitis [2]: 0
HepSE_cholelithiasis [3]: 0
HepSE_cirrhosis [4]: 0
HepSE_elevated liver function tests [5]: 0
HepSE_hepatic failure [6]: 0
HepSE_hepatic necrosis [7]: 0
HepSE_hepatitis [8]: 0
HepSE_hepatomegaly [9]: 0
HepSE_jaundice [10]: 0
HepSE_liver disease [11]: 0
HepSE_liver fatty [12]: 0
HepSE_liver function tests abnormal [13]: 0
HepSE_Combined Scores [14]: 0

O=P(O)(O)C(O)(Cc1cccnc1)P(=O)(O)O [RISEDRONIC ACID]
HepSE_bilirubinemia [1]: 0
HepSE_cholecystitis [2]: 0
HepSE_cholelithiasis [3]: 0
HepSE_cirrhosis [4]: 0
HepSE_elevated liver function tests [5]: 0
HepSE_hepatic failure [6]: 0
HepSE_hepatic necrosis [7]: 0
HepSE_hepatitis [8]: 0
HepSE_hepatomegaly [9]: 0
HepSE_jaundice [10]: 0
HepSE_liver disease [11]: 0
HepSE_liver fatty [12]: 0
HepSE_liver function tests abnormal [13]: 0
HepSE_Combined Scores [14]: 0

Cc1nc2n(c(=O)c1CCN1CCC(c3noc4cc(F)ccc34)CC1)CCCC2 [RISPERIDONE]
HepSE_bilirubinemia [1]: 1
HepSE_cholecystitis [2]: 1
HepSE_cholelithiasis [3]: 1
HepSE_cirrhosis [4]: 0
HepSE_elevated liver function tests [5]: 0
HepSE_hepatic failure [6]: 1
HepSE_hepatic necrosis [7]: 0
HepSE_hepatitis [8]: 1
HepSE_hepatomegaly [9]: 1
HepSE_jaundice [10]: 1
HepSE_liver disease [11]: 0
HepSE_liver fatty [12]: 1
HepSE_liver function tests abnormal [13]: 0
HepSE_Combined Scores [14]: 8

CCN(C)C(=O)Oc1cccc([C@H](C)N(C)C)c1 [RIVASTIGMINE]
HepSE_bilirubinemia [1]: 0
HepSE_cholecystitis [2]: 1
HepSE_cholelithiasis [3]: 1
HepSE_cirrhosis [4]: 0
HepSE_elevated liver function tests [5]: 0
HepSE_hepatic failure [6]: 0
HepSE_hepatic necrosis [7]: 0
HepSE_hepatitis [8]: 0
HepSE_hepatomegaly [9]: 0
HepSE_jaundice [10]: 0
HepSE_liver disease [11]: 0
HepSE_liver fatty [12]: 0
HepSE_liver function tests abnormal [13]: 0
HepSE_Combined Scores [14]: 2

CN(C)CCc1c[nH]c2ccc(Cn3cncn3)cc12 [RIZATRIPTAN]
HepSE_bilirubinemia [1]: 0
HepSE_cholecystitis [2]: 0
HepSE_cholelithiasis [3]: 0
HepSE_cirrhosis [4]: 0
HepSE_elevated liver function tests [5]: 0
HepSE_hepatic failure [6]: 0
HepSE_hepatic necrosis [7]: 0
HepSE_hepatitis [8]: 0
HepSE_hepatomegaly [9]: 0
HepSE_jaundice [10]: 0
HepSE_liver disease [11]: 0
HepSE_liver fatty [12]: 0
HepSE_liver function tests abnormal [13]: 0
HepSE_Combined Scores [14]: 0

C=CC[N+]1([C@H]2C[C@H]3[C@@H]4CC[C@H]5C[C@H](O)[C@@H](N6CCOCC6)C[C@]5(C)[C@H]4CC[C@]3(C)[C@H]2OC(C)=O)CCCC1 [ROCURONIUM]
HepSE_bilirubinemia [1]: 0
HepSE_cholecystitis [2]: 0
HepSE_cholelithiasis [3]: 0
HepSE_cirrhosis [4]: 0
HepSE_elevated liver function tests [5]: 0
HepSE_hepatic failure [6]: 0
HepSE_hepatic necrosis [7]: 0
HepSE_hepatitis [8]: 0
HepSE_hepatomegaly [9]: 0
HepSE_jaundice [10]: 0
HepSE_liver disease [11]: 0
HepSE_liver fatty [12]: 0
HepSE_liver function tests abnormal [13]: 0
HepSE_Combined Scores [14]: 0

CS(=O)(=O)c1ccc(C2=C(c3ccccc3)C(=O)OC2)cc1 [ROFECOXIB]
HepSE_bilirubinemia [1]: 0
HepSE_cholecystitis [2]: 1
HepSE_cholelithiasis [3]: 0
HepSE_cirrhosis [4]: 0
HepSE_elevated liver function tests [5]: 0
HepSE_hepatic failure [6]: 1
HepSE_hepatic necrosis [7]: 0
HepSE_hepatitis [8]: 1
HepSE_hepatomegaly [9]: 0
HepSE_jaundice [10]: 1
HepSE_liver disease [11]: 0
HepSE_liver fatty [12]: 0
HepSE_liver function tests abnormal [13]: 0
HepSE_Combined Scores [14]: 4

CCCN(CCC)CCc1cccc2c1CC(=O)N2 [ROPINIROLE]
HepSE_bilirubinemia [1]: 1
HepSE_cholecystitis [2]: 1
HepSE_cholelithiasis [3]: 1
HepSE_cirrhosis [4]: 0
HepSE_elevated liver function tests [5]: 0
HepSE_hepatic failure [6]: 0
HepSE_hepatic necrosis [7]: 0
HepSE_hepatitis [8]: 1
HepSE_hepatomegaly [9]: 0
HepSE_jaundice [10]: 0
HepSE_liver disease [11]: 0
HepSE_liver fatty [12]: 0
HepSE_liver function tests abnormal [13]: 0
HepSE_Combined Scores [14]: 4

CCCN1CCCC[C@H]1C(=O)Nc1c(C)cccc1C [ROPIVACAINE]
HepSE_bilirubinemia [1]: 0
HepSE_cholecystitis [2]: 0
HepSE_cholelithiasis [3]: 0
HepSE_cirrhosis [4]: 0
HepSE_elevated liver function tests [5]: 0
HepSE_hepatic failure [6]: 0
HepSE_hepatic necrosis [7]: 0
HepSE_hepatitis [8]: 0
HepSE_hepatomegaly [9]: 0
HepSE_jaundice [10]: 1
HepSE_liver disease [11]: 0
HepSE_liver fatty [12]: 0
HepSE_liver function tests abnormal [13]: 0
HepSE_Combined Scores [14]: 1

CN(CCOc1ccc(CC2SC(=O)NC2=O)cc1)c1ccccn1 (stereo not drawn) [ROSIGLITAZONE]
HepSE_bilirubinemia [1]: 1
HepSE_cholecystitis [2]: 0
HepSE_cholelithiasis [3]: 0
HepSE_cirrhosis [4]: 0
HepSE_elevated liver function tests [5]: 0
HepSE_hepatic failure [6]: 1
HepSE_hepatic necrosis [7]: 0
HepSE_hepatitis [8]: 1
HepSE_hepatomegaly [9]: 0
HepSE_jaundice [10]: 0
HepSE_liver disease [11]: 0
HepSE_liver fatty [12]: 0
HepSE_liver function tests abnormal [13]: 0
HepSE_Combined Scores [14]: 3

CC(C)c1nc(N(C)S(C)(=O)=O)nc(-c2ccc(F)cc2)c1/C=C/[C@@H](O)C[C@@H](O)CC(=O)O [ROSUVASTATIN]
HepSE_bilirubinemia [1]: 0
HepSE_cholecystitis [2]: 0
HepSE_cholelithiasis [3]: 0
HepSE_cirrhosis [4]: 0
HepSE_elevated liver function tests [5]: 0
HepSE_hepatic failure [6]: 0
HepSE_hepatic necrosis [7]: 0
HepSE_hepatitis [8]: 1
HepSE_hepatomegaly [9]: 0
HepSE_jaundice [10]: 1
HepSE_liver disease [11]: 0
HepSE_liver fatty [12]: 0
HepSE_liver function tests abnormal [13]: 0
HepSE_Combined Scores [14]: 2

OCc1cc(C(O)CNCCCCCCOCCCCc2ccccc2)ccc1O (stereo not drawn) [SALMETEROL]
HepSE_bilirubinemia [1]: 0
HepSE_cholecystitis [2]: 0
HepSE_cholelithiasis [3]: 0
HepSE_cirrhosis [4]: 0
HepSE_elevated liver function tests [5]: 0
HepSE_hepatic failure [6]: 0
HepSE_hepatic necrosis [7]: 0
HepSE_hepatitis [8]: 0
HepSE_hepatomegaly [9]: 0
HepSE_jaundice [10]: 0
HepSE_liver disease [11]: 0
HepSE_liver fatty [12]: 0
HepSE_liver function tests abnormal [13]: 0
HepSE_Combined Scores [14]: 0

C[C@H](O)[C@H](O)[C@H]1CNc2nc(N)[nH]c(=O)c2N1 [SAPROPTERIN]
HepSE_bilirubinemia [1]: 0
HepSE_cholecystitis [2]: 0
HepSE_cholelithiasis [3]: 0
HepSE_cirrhosis [4]: 0
HepSE_elevated liver function tests [5]: 0
HepSE_hepatic failure [6]: 0
HepSE_hepatic necrosis [7]: 0
HepSE_hepatitis [8]: 0
HepSE_hepatomegaly [9]: 0
HepSE_jaundice [10]: 0
HepSE_liver disease [11]: 0
HepSE_liver fatty [12]: 0
HepSE_liver function tests abnormal [13]: 0
HepSE_Combined Scores [14]: 0
